Twelve compounds from patent US7879848B2, “Dipeptidyl Peptidase-IV inhibiting compounds, method of preparing the same, and pharmaceutical compositions containing the same as an active agent” (LG Life Sciences, Ltd., priority 2005, dated 2011) can be followed below.

Where only a bound is given, the exact number is not on record here.

T1 sequence (P27487 whole entry): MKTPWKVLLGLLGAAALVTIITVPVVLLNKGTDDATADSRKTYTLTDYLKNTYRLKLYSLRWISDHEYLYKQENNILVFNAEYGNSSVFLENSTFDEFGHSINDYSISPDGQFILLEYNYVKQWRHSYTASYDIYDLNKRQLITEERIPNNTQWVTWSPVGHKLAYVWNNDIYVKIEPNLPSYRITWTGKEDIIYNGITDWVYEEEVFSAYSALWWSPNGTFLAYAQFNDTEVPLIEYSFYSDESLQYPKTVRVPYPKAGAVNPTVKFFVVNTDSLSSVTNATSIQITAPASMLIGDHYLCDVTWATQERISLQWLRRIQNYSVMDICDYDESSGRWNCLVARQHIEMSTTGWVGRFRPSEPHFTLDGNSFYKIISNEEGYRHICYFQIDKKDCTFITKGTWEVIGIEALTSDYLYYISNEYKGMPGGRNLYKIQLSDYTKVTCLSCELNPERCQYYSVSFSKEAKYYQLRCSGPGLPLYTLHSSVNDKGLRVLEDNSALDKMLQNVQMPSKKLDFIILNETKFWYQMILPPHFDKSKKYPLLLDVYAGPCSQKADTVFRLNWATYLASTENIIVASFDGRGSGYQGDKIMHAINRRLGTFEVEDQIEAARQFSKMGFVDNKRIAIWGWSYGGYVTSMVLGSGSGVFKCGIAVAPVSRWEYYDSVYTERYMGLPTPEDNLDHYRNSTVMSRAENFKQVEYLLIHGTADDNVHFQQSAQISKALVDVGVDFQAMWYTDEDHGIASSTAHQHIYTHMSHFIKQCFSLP

The experiment concerns the target T1, Dipeptidyl Peptidase-IV (DPP-IV) (Homo sapiens, UniProt P27487).
T1 construct: made in house
Put plainly: Measurement of DPP-IV Activity-Inhibiting Ability (fluorescent substrate Ac-Gly-Pro-AFC). In kind it is biochemical. Conditions: 25° C., 50 mmol HEPES (pH 7.4), DP-IV 7.1 nM, enzyme reaction for 1 hour. The method, boiled down:
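Baculovirus-expressed, nickel-purified enzyme (7.1 nM) was reacted with 100 µM Ac-Gly-Pro-AFC in 50 mmol HEPES pH 7.4 at 25 °C across a range of inhibitor concentrations. Product fluorescence was read at excitation 400 nm and emission 505 nm.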
For orientation: IC50 means the point on the concentration scale where inhibition reaches its midpoint. Higher therefore signals weaker potency. Consider `N[C@@H](CC(=O)N1CCc2c(nc(-c3cccc(F)c3)nc2C(F)(F)F)C1)CN1CC(F)(F)CCC1=O` [Ex. 32, 1-{(2S)-2-amino-4-[2-(3-fluorophenyl)-4-(trifluoromethyl)-5,8-dihydropyrido[3,4-d]pyrimidin-7(6H)-yl]-4-oxobutyl}-5,5-difluoropiperidin-2-one], for which the half-inhibitory concentration (IC50) is 199 nM.
For `N[C@@H](CC(=O)N1CCc2sc(-c3ccc(C(F)(F)F)cc3)nc2C1)CN1CC(F)(F)CCC1=O` [Ex. 43, 1-[(2S)-2-amino-4-oxo-4-{2-[4-(trifluoromethyl)phenyl]-6,7-dihydro[1,3]thiazolo[4,5,c]pyridin-5(4H)-yl}butyl]-5,5-difluoropiperidin-2-one], the half-inhibitory concentration (IC50) was found to be 9 nM.
In turn, `N[C@@H](CC(=O)N1CCc2c(nc(C3CCC3)nc2C(F)(F)F)C1)CN1CC(F)(F)CCC1=O` [Ex. 113, 1-{(2S)-2-amino-4-[2-cyclobutyl-4-(trifluoromethyl)-5,8-dihydropyrido[3,4-d]pyrimidin-7(6H)-yl]-4-oxobutyl}-5,5-difluoropiperidin-2-one] registered an IC50 of 13 nM.
For `CC(C)c1nc2c(c(C(F)(F)F)n1)CCN(C(=O)C[C@H](N)CN1C[C@H](C)CCC1=O)C2` [Ex. 75, 1-{(2S)-2-amino-4-[2-isopropyl-4-(trifluoromethyl)-5,8-dihydropyrido[3,4-d]pyrimidin-7(6H)-yl]-4-oxobutyl}-5-methylpiperidin-2-one], the concentration for half-maximal inhibition (IC50) was 16 nM.
The same measure for `N[C@@H](CC(=O)N1CCn2c(nnc2C(F)(F)F)C1)CN1CCC(F)C1=O` (stereo partly drawn) [Ex. 5, 1-[2S-amino-4-oxo-4-(3-trifluoromethyl-5,6-dihydro-8H-[1,2,4]triazolo[4,3-a]pyrazin-7-yl)-butyl]-3-fluoro-pyrrolidin-2-one]: > 10000 nM; for `C[C@@H]1CCC(=O)N(C[C@@H](N)CC(=O)N2CCc3c(nc(Cc4ccc(F)cc4)nc3C(F)(F)F)C2)C1` [Ex. 58, (5R)-1-{(2S)-2-amino-4-[2-(4-fluorobenzyl)-4-(trifluoromethyl)-5,8-dihydropyrido[3,4-d]pyrimidin-7(6H)-yl]-4-oxobutyl}-5-methylpiperidin-2-one]: 14 nM.
To `CC1CN(C[C@@H](N)CC(=O)N2CCn3c(nnc3C(F)(F)F)C2)C(=O)CO1` (stereo partly drawn) [Ex. 16, 4-[2S-amino-4-oxo-4-(3-trifluoromethyl-5,6-dihydro-8H-[1,2,4]triazolo[4,3-a]pyrazin-7-yl)-butyl]-6-methyl-morpholin-3-one] belongs 66 nM; to `C[C@@H]1CCC(=O)N(C[C@@H](N)CC(=O)N2CCc3c(nc(C(F)(F)F)nc3C(F)(F)F)C2)C1` [Ex. 82, (5R)-1-{(2S)-2-amino-4-[2,4-bis(trifluoromethyl)-5,8-dihydropyrido[3,4-d]pyrimidin-7(6H)-yl]-4-oxobutyl}-5-methylpiperidin-2-one], 16 nM.
With `C[C@@H]1CCC(=O)N(C[C@@H](N)CC(=O)N2CCc3c(nc(-c4ccc(F)cc4)nc3C(F)(F)F)C2)C1` [Ex. 34, (5R)-1-{(2S)-2-amino-4-[2-(4-fluorophenyl)-4-(trifluoromethyl)-5,8-dihydropyrido[3,4-d]pyrimidin-7(6H)-yl]-4-oxobutyl}-5-methylpiperidin-2-one], the half-maximal inhibitory concentration (IC50) came out at 34 nM.
To `C[C@@H]1CCC(=O)N(C[C@@H](N)CC(=O)N2CCc3c(nc(-c4ccccc4)nc3C(F)(F)F)C2)C1` [Ex. 22, (5R)-1-{(2S)-2-amino-4-oxo-4-[2-phenyl-4-(trifluoromethyl)-5,8-dihydropyrido[3,4-d]pyrimidin-7(6H)-yl]butyl}-5-methylpiperidin-2-one] belongs 49 nM.
Turning to `N[C@@H](CC(=O)N1CCc2c(nc(CF)nc2C(F)(F)F)C1)CN1CC(F)(F)CCC1=O` [Ex. 102, 1-{(2S)-2-amino-4-[2-(fluoromethyl)-4-(trifluoromethyl)-5,8-dihydropyrido[3,4-d]pyrimidin-7(6H)-yl]-4-oxobutyl}-5,5-difluoropiperidin-2-one], the concentration for half-maximal inhibition (IC50) was found to be 29 nM.
As to `Cc1nc2c(c(C(F)(F)F)n1)CCN(C(=O)C[C@H](N)CN1C[C@H](C)OCC1=O)C2` [Ex. 86], 30 nM corresponded to half-maximal inhibition (IC50).
